Laboratory results from patent US11472844B2, “Peptidomimetics, method of synthesis and uses thereof” (priority 2017, dated 2022).
“Also recorded” adds a separate entry of the source. *: point of attachment. X1 = CC[N+]1=C(/C=C/C=C/C=C2N(CCCCCC(=O)NCCN3C(=O)CC(*)C3=O)c3ccc(S(=O)(=O)O)cc3C2(C)C)C(C)(C)c2cc(S(=O)(=O)[O-])ccc21

Columns and labels:
[1] = molecular target: T1, human purified lactoferrin (Homo sapiens, UniProt P02788); test: Lactoferrin polymers immunofluorescence labelling; format: binding; details: PNGase treatment; listed as MUB40-Cy5
T1 construct: purchased Sigma-Aldrich L1294
Protocol: Lactoferrin polymerization. Human purified lactoferrin (ref: L1294, Sigma-Aldrich) was resuspended in deionized H2O (35 μg/mL). Lactoferrin was incubated in RPMI+10 mM Hepes supplemented with 10 mM FeCl3, at indicated concentrations (0.35 or 3.5 μg/mL) onto 24-well plates containing 12 mm coverslips overnight at 37° C., adapted from similar lactoferrin polymerization experiments performed in iron saturated phosphate buffer (Mantel et al. 1994).
Lactoferrin deglycolysation. About 10 μg of human purified lactoferrin (ref: L1294, Sigma-Aldrich) was treated by Peptide-N-Glycosidase F (PNGaseF, New England Biolabs, Ipswich Mass., USA) for N-deglycosylation. Protein was treated exactly as described in manufacturer protocol. Twelve unit of PNGase F were added for 4 h at 37° C. for the removal of N-glycosylation.
Lactoferrin polymers interaction with MUB40-Cy5. Lactoferrin polymers were centrifuged at 2000 rpm for 10 min and fixed in Paraformaldehyde (PFA) 4% for one hour. Lactoferrin polymers were immunolabeled in PBS+0.1% saponin (Sigma-Aldrich) with a mouse anti-lactoferrin primary monoclonal antibody (Hycult biotech, clone 265-1K1, 1:50 dilution) and an anti-mouse-FITC conjugated secondary antibody (1:1000), together with MUB40-Cy5 (SEQ ID NO: 3) (1 μg/mL). Slides were washed three times in PBS and three times in deionized H2O and mounted with prolong gold^tm mounting media.

[2] = tested on: mouse circulating neutrophils; test: Labelling of fixed mouse neutrophils; format: cell-based
Protocol: (§1) Polymorphonuclear neutrophils purification. Human polymorphonuclear neutrophils were purified as described previously (Monceaux et al. 2016). Briefly, plasma was removed by centrifugation (450×g, 15 min); blood cells were resuspended in 0.9% NaCl solution supplemented with 0.72% Dextran. After red blood cells sedimentation, white blood cells were pelleted and further separated on a two layer Percoll (GE Healthcare) (51%−42%) by centrifugation (at 240×g, 20 min). PBMC (top layer) were isolated from polymorphonuclear neutrophils (bottom layer). Red blood cells were removed from the latter fraction using CD235a (glycophorin) microbeads (negative selection) (Miltenyi Biotec). PBMCs and polymorphonuclear neutrophils were resuspended in the autologous plasma. Guinea pig and mouse polymorphonuclear neutrophils were purified with the same procedure.

[3] = tested on: guinea pig circulating neutrophils; test: Labelling of fixed guinea pig neutrophils; format: cell-based
Protocol: as §1

[4] = tested on: neutrophils recruited to guinea pig colonic mucosa infected with Shigella flexneri; test: Guinea pig model of shigellosis, staining of fixed colon sections
Protocol: Guinea pig. The experimental protocol was approved by the french Ethic Committee Paris (n° 20140069, 2014). Young guinea pigs (Hartley, <150 g, Charles River) were anaesthetized and infected intrarectally with 10^9 CFU exponentially grown Shigella flexneri 5a (M90T) pGFP as previously described (Shim et al. 2007) (Monceaux et al. 2016). Infection occurred during 8 hours before animals were sacrificed and infected colons collected and fixed in 4% Paraformaldehyde (PFA) for two hours. For immunohistochemical staining, infected guinea pig colon samples were washed in PBS and incubated at 4° C. in PBS containing 16% sucrose for 4 hours, followed by incubation in PBS with 30% sucrose overnight. Samples were frozen in OCT (VWR 361603E) on dry ice. Frozen blocks were stored at −80 until sectioning. 10 to 30 μm sections were obtained using a cryostat CM-3050S (Leica). Tissue slices were labeled in PBS+0.1% saponin (Sigma-Aldrich) with MUB40-Cy5 or MUB40-Dylight (1 μg/ml) to localize recruited neutrophils. Slides were washed three time in PBS+0.1% saponin, three times in PBS, and three times in deionized H2O and mounted with prolong gold^tm mounting media.

T1 sequence (P02788 20-710): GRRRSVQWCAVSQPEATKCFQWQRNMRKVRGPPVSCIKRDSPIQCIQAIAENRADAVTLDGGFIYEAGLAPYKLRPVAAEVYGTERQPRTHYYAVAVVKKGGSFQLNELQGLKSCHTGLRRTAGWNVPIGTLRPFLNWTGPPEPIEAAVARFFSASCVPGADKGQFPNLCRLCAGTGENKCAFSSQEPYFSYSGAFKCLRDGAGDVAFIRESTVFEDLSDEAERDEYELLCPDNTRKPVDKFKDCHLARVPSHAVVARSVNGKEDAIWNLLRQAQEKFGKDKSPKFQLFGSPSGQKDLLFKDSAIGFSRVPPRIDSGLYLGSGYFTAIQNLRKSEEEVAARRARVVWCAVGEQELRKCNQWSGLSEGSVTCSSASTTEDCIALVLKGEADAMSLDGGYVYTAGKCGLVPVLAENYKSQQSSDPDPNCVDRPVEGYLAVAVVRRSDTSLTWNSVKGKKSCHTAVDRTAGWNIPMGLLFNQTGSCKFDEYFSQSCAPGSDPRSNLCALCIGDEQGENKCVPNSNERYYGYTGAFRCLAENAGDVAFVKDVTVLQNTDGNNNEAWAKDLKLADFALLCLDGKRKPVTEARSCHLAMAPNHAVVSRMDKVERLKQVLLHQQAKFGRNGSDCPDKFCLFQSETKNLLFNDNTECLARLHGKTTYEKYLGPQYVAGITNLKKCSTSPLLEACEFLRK

## Ac-C(X1)TAEGIKKFEGDGYELFKDNFPAGEKFDNDDTNDQFYTVIF-NH2 [Cy5-MUB40#1]
[1]
  labelling of deglycosylated lactoferrin: no longer labelled; also recorded: abolished
[2]
  labelling of neutrophils: efficiently labeled
[3]
  labelling of neutrophils: efficiently labeled
[4]; fixed guinea pig colonic mucosa infected by Shigella flexneri, 1 μg/mL
  detection of neutrophil lactoferrin secretion: successfully revealed
[4]; guinea pig colon, Shigella flexneri, 1 μg/ml
  labelling of recruited neutrophils: specifically labeled
